Source: patent US20230158042A1, “COMBINATION CANCER THERAPY WITH PENTAAZA MACROCYCLIC RING COMPLEX AND HORMONE THERAPY AGENT” (Galera Labs, LLC, priority 2020, published 2023)

Columns and labels:
[1] = system: T47D cells overexpressing MnSOD^K68Q; assay: MTT cell viability, T47D cells overexpressing MnSOD^K68Q; type: cell-based, human; conditions: 48 hours
Experimental: (§1) In FIGS. 28a-28b, cell lysates of 250 nM, 500 nM, 1 µM cisplatin-resistant and 500pM, 1 nM and 2 nM doxorubicin-resistant MCF7 cells (cultured in drug-containing media for 3 months) were collected and immunoblotted for MnSOD—K68—Ac, MnSOD, actin and tubulin. In FIGS. 28d-28e, cell lysates of 2.5 µM, 5 µM, 10 µM cisplatin-resistant and 5 nM, 10 nM and 20 nM doxorubicin-resistant T47D cells (cultured in drug-containing media for 3 months) were collected and immunoblotted for MnSOD—K68—Ac, MnSOD, actin and tubulin. In FIGS. 28c and 28f, 10,000 MCF7 or T47D cells overexpressed with empty vector, MnSOD^WT, MnSOD^K68R or MnSOD^K68Q were plated in 96 well plate and treated with cisplatin (1 µM for MCF7 and 10 µM for T47D) or doxorubicin (2 nM for MCF7 and 20 nM for T47D) the next day. After 48 hours, MTT assay is conducted to determine the cell viability after chemotherapy drug treatment.
(§2) Cell proliferation was measured using MTT proliferation assay kit (ab211091). 10,000 exponentially growing cells were plated in regular growth medium per well into 96-well plates in triplicate. Cells were treated with specified drugs after overnight and incubated for 48 hours. […] The absorbance was read at OD=590 nm and used to evaluate cell proliferation.

[2] = system: MCF7 cells overexpressing MnSOD^K68Q; assay: MTT cell viability, MCF7 cells overexpressing MnSOD^K68Q; type: cell-based, human; conditions: 48 hours
Experimental: as §1, §2

[3] = system: MCF7-MnSOD^K68Q cells; assay: Clonogenic cell survival in MCF7-MnSOD^K68Q cells; type: cell-based, human
Experimental: FIGS. 25a-25b show clonogenic cell survival studies in MCF7-MnSOD^K68Q cells exposed to either: Fulv at 100 nM (in FIG. 25a); or Palb at 0.5 µM (in FIG. 25b) using standard methods. […] Error bars are ± 1 SEM. Experiments in triplicate. *** p < 0.001.
(§3) Clonogenic cell survival assay. For the clonogenic survival analysis, exponentially growing cells were replated using appropriate dilutions, and clonogenic survival was evaluated after 14 days in regular growth medium. Cells were stained with crystal violet, and colonies of >50 cells were counted and utilized to calculate clonogenic survival^46.

[4] = system: LNCaP-MnSOD^K68Q cells; assay: Clonogenic cell survival in LNCaP-MnSOD^K68Q cells; type: cell-based; conditions: 10 µM of ENZ for 72 hr
Experimental: In FIG. 20a, clonogenic cell survival experiments were done in LNCaP-ENZR cells infected with lenti-MnSOD^K68R or lenti-MnSOD^K68Q, in the presence of ENZ (10 µM). In FIG. 20b, clonogenic survival assays were done in LNCaP cells infected with lenti-MnSOD^WT, lenti-MnSOD^K68R, and lenti-MnSOD^K68Q, and selected with neomycin, and placed in 10 µM of ENZ for 72 hr. Error bars ± 1 SEM. Experiments were done in triplicate. **p < 0.01.
FIGS. 21a-21b are a chart and graph showing that pharmacologically mimicking the activity of deacetylated lysine 68 MnSOD with a manganese pentaazamacrocyclic dismutase mimetic both inhibited the growth of LNCaP-ENZR tumors and reversed the enzalutamide resistance in LNCaP-ENZR / LNCaP—MnSOD^K68Q cells and tumors. In FIG. 21a, clonogenic cell survival experiments were performed in LNCaP-ENZR (left two bars) and LNCaP—MnSOD^K68Q (right two bars) treated with ENZ, with or without GC4419 (20 µM) for 5 days. […] Tumor volumes were measured three times a week for 46 days. For each group n=10. Error bars ± 1 SEM. All experiments done in triplicate. **p < 0.01.

[5] = system: rat model of collagen-induced arthritis; conditions: cited from earlier work
[6] = system: colon of rats; conditions: experimental model of colitis; cited from earlier work
[7] = system: adult mice; conditions: lethal total body irradiation of adult mice; cited from earlier work
[8] = system: rat model of inflammation; conditions: cited from earlier work
[9] = system: hamster model of acute, radiation-induced oral mucositis; conditions: cited from earlier work
[10] = system: MCF7 cells expressing shSIRT3; assay: Clonogenic cell survival in MCF7-shSIRT3 cells with hydroxy-Tam; type: cell-based, human; conditions: 1 µM hydroxy-Tam for 120 h
Experimental: All experiments were done in triplicate. Error bars represent ± 1 SEM. **p < 0.01, and ***p < 0.001. Three-armed groups were analyzed via a one-way ANOVA statistical analysis with Tukey’s post-analysis, and two-armed groups were analyzed by a t-test.
as §3

[11] = system: T47D cells expressing shSIRT3; assay: Clonogenic cell survival in T47D-shSIRT3 cells with hydroxy-Tam; type: cell-based, human; conditions: 1 µM 4-hydroxy-Tam for 24 h
Source text: FIGS. 14a-14g are images and plots that illustrate that loss of SIRT3-induced MnSOD—K68 deacetylation leads to hydroxy-Tam resistance, and that such resistance is associated with increased lysine acetylation in human breast cancer cells, while mimicking deacetylation of MnSOD—K68 or pharmacologically mimicking the activity of deacetylated lysine 68 MnSOD with a manganese pentaazamacrocyclic dismutase mimetic has opposing effects. With respect to FIG. 14a, T47D-MnSOD^WT, T47D-MnSOD^K68R, and T47D-MnSOD^K68D permanent cell lines were selected for hydroxy-Tam resistance in 1 µM for 3 months, and clonogenic cell survival experiments were completed. […] With respect to FIG. 14c, T47D and T47D-HTR cells, with and without exposure to 1 µM 4-hydroxy-Tam for 24 h (HT), were measured for hydroxy-Tam response by clonogenic survival experiments. […] The cell lysates were analyzed by immunoblotting with anti-MnSOD-K122-Ac (validated as a SIRT3 deacetylation target in Tao et al., 2010, Cancer Cell), anti-MnSOD, anti-OSCP-K139-Ac (validated as a SIRT3 deacetylation target in Tao et al., 2010, Cancer Cell), anti-OSCP, anti-IDH2K413-Ac (validated as a SIRT3 deacetylation target in Someya et al., 2010, Cancer Cell), anti-IDH2, and anti-actin. […]
Clonogenic cell survival assay. […] Cells were stained with crystal violet, and colonies of >50 cells were counted and utilized to calculate clonogenic survival^46.

[12] = system: T47D cells constitutively expressing MnSOD^K68Q; assay: Clonogenic cell survival in T47D-MnSOD^K68Q cells with hydroxy-Tam; type: cell-based, human; conditions: 1 µM hydroxy-Tam; compared to cells expressing MnSOD^K68WT or MnSOD^K68R

## [NH2][Pt]([NH2])([Cl])[Cl] [CDDP, cisplatin]
[1]; CDDP 10 µM
  cell viability after drug treatment (MTT): higher resistance
[2]; CDDP 1 µM
  cell viability after drug treatment (MTT): higher resistance

## C[C@]12CC[C@@H]3c4ccc(O)cc4C[C@@H](CCCCCCCCC[S+]([O-])CCCC(F)(F)C(F)(F)F)[C@H]3[C@@H]1CC[C@@H]2O (stereo partly drawn) [Fulv, fulvestrant]
[3]; Fulv at 100 nM, compared to MCF7 cells expressing MnSOD^WT
  clonogenic tumor cell survival: exhibited resistance

## CNC(=O)c1ccc(N2C(=S)N(c3ccc(C#N)c(C(F)(F)F)c3)C(=O)C2(C)C)cc1F [ENZ, enzalutamide, reference compound]
[4]
  response to ENZ (clonogenic survival): ENZR phenotype

## [Cl-].[Cl-].[Mn+2].c1cc2nc(c1)CN[C@@H]1CCCC[C@H]1NCCN[C@@H]1CCCC[C@H]1NC2 [GC4403]
[5]
  joint disease: prevent joint disease
[6]
  injury to the colon: very significantly reduce the injury to the colon
[7]
  radiation damage: attenuate the radiation damage
[8]
  inflammation: inhibit inflammation
[9]
  radiation damage: attenuate the radiation damage

## COc1cccc2c1C(=O)c1c(O)c3c(c(O)c1C2=O)C[C@@](O)(C(=O)CO)C[C@@H]3O[C@H]1C[C@H](N)[C@H](O)[C@H](C)O1 [DXR, doxorubicin]
[1]; DXR 20 nM
  cell viability after drug treatment (MTT): higher resistance
[2]; DXR 2 nM
  cell viability after drug treatment (MTT): higher resistance

## 4-hydroxytamoxifen [hydroxy-Tam]
[10]
  hydroxy-Tam cytotoxicity (clonogenic survival): resistance to hydroxy-Tam cytotoxicity
[11]
  hydroxy-Tam cytotoxicity (clonogenic survival): resistance to hydroxy-Tam cytotoxicity
[12]
  cytotoxicity of hydroxy-Tam (clonogenic survival): significant resistance to the cytotoxicity of hydroxy-Tam
[3]; 1 µM hydroxy-Tam for 5 days, compared to cells expressing MnSOD^K68WT or MnSOD^K68R
  cytotoxicity of hydroxy-Tam (clonogenic survival): significant resistance to the cytotoxicity of hydroxy-Tam
